From PubChem BioAssay AID1963977 (Molecular Pharmacology Branch, DTP, NCI, 2024)

System: 624824-186-R-J3-PDC multicell spheroids, viability
Experiment: Anticancer human tumor 624824-186-R-J3-PDC patient-derived colon adenocarcinoma cell line growth inhibition [PI3K]
Conditions: for viability, T/C: stronger effect = lower value
Outline: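 Targeted small molecules plus PI3K inhibitors, half-log dose series from Cmax (default top 10 microM), were applied to heterotypic spheroids of cancer cells with HUVEC and MSCs. Viability indicated growth inhibition.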

[1] = curve of first compound, second compound 0.0316 µM
[2] = curve of first compound, second compound 0.1 µM
[3] = curve of first compound, second compound 0.316 µM
[4] = curve of first compound, second compound 1 µM
[5] = curve of first compound, second compound 3.16 µM
[6] = curve of first compound, second compound 10 µM
[7] = second compound 0.0316 µM, first compound 0.0316 µM
[8] = second compound 0.0316 µM, first compound 0.1 µM
[9] = second compound 0.0316 µM, first compound 0.316 µM
[10] = second compound 0.0316 µM, first compound 1 µM
[11] = second compound 0.0316 µM, first compound 3.16 µM
[12] = second compound 0.0316 µM, first compound 10 µM
[13] = second compound 0.1 µM, first compound 0.0316 µM
[14] = second compound 0.1 µM, first compound 0.1 µM
[15] = second compound 0.1 µM, first compound 0.316 µM
[16] = second compound 0.1 µM, first compound 1 µM
[17] = second compound 0.1 µM, first compound 3.16 µM
[18] = second compound 0.1 µM, first compound 10 µM
[19] = second compound 0.316 µM, first compound 0.0316 µM
[20] = second compound 0.316 µM, first compound 0.1 µM
[21] = second compound 0.316 µM, first compound 0.316 µM
[22] = second compound 0.316 µM, first compound 1 µM
[23] = second compound 0.316 µM, first compound 3.16 µM
[24] = second compound 0.316 µM, first compound 10 µM
[25] = second compound 1 µM, first compound 0.0316 µM
[26] = second compound 1 µM, first compound 0.1 µM
[27] = second compound 1 µM, first compound 0.316 µM
[28] = second compound 1 µM, first compound 1 µM
[29] = second compound 1 µM, first compound 3.16 µM
[30] = second compound 1 µM, first compound 10 µM
[31] = second compound 3.16 µM, first compound 0.0316 µM
[32] = second compound 3.16 µM, first compound 0.1 µM
[33] = second compound 3.16 µM, first compound 0.316 µM
[34] = second compound 3.16 µM, first compound 1 µM
[35] = second compound 3.16 µM, first compound 3.16 µM
[36] = second compound 3.16 µM, first compound 10 µM
[37] = second compound 10 µM, first compound 0.0316 µM
[38] = second compound 10 µM, first compound 0.1 µM
[39] = second compound 10 µM, first compound 0.316 µM
[40] = second compound 10 µM, first compound 1 µM
[41] = second compound 10 µM, first compound 3.16 µM
[42] = second compound 10 µM, first compound 10 µM
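Further: spheroids exposed to agents for seven days before luminescence read.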
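Wherever viability, T/C is given: luminescent signal used as a stand-in for spheroid viability; percent viability relative to DMSO vehicle control wells taken as 100%.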

SMILES: CC1(C)CCC(CN2CCN(c3ccc(C(=O)NS(=O)(=O)c4ccc(NCC5CCOCC5)c([N+](=O)[O-])c4)c(Oc4cnc5[nH]ccc5c4)c3)CC2)=C(c2ccc(Cl)cc2)C1 + Cc1nc(NC(=O)N2CCCC2C(N)=O)sc1-c1ccnc(C(C)(C)C(F)(F)F)c1
- IC50 [1]: 9.73 µM
- IC50 [2]: 9.43 µM
- IC50 [3]: > 10 µM
- IC50 [4]: > 10 µM
- IC50 [5]: 8.59 µM
- IC50 [6]: 5.3 µM
- viability, T/C [7]: 106%
- viability, T/C [8]: 99.3%
- viability, T/C [9]: 106%
- viability, T/C [10]: 101%
- viability, T/C [11]: 119%
- viability, T/C [12]: 48.7%
- viability, T/C [13]: 103%
- viability, T/C [14]: 99.9%
- viability, T/C [15]: 104%
- viability, T/C [16]: 107%
- viability, T/C [17]: 118%
- viability, T/C [18]: 46.9%
- viability, T/C [19]: 119%
- viability, T/C [20]: 104%
- viability, T/C [21]: 107%
- viability, T/C [22]: 103%
- viability, T/C [23]: 116%
- viability, T/C [24]: 54.6%
- viability, T/C [25]: 96.2%
- viability, T/C [26]: 93.8%
- viability, T/C [27]: 106%
- viability, T/C [28]: 96.9%
- viability, T/C [29]: 104%
- viability, T/C [30]: 53.2%
- viability, T/C [31]: 82.5%
- viability, T/C [32]: 91.4%
- viability, T/C [33]: 90.8%
- viability, T/C [34]: 81.8%
- viability, T/C [35]: 91.3%
- viability, T/C [36]: 44.3%
- viability, T/C [37]: 69.9%
- viability, T/C [38]: 73.8%
- viability, T/C [39]: 70.1%
- viability, T/C [40]: 69.7%
- viability, T/C [41]: 63.7%
- viability, T/C [42]: 33.3%

SMILES: Cn1nccc1Nc1nccc(-c2ccn(C(CO)c3ccc(Cl)c(F)c3)c(=O)c2)n1 (stereo unspecified) + CC(Nc1ncnc2nc[nH]c12)c1cc2cccc(Cl)c2c(=O)n1-c1ccccc1
- IC50 [1]: > 10 µM
- IC50 [2]: > 10 µM
- IC50 [3]: > 10 µM
- IC50 [4]: 9.34 µM
- IC50 [5]: 2.84 µM
- IC50 [6]: 0.633 µM
- viability, T/C [7]: 103%
- viability, T/C [8]: 93.9%
- viability, T/C [9]: 95.1%
- viability, T/C [10]: 76.9%
- viability, T/C [11]: 61.2%
- viability, T/C [12]: 57.4%
- viability, T/C [13]: 103%
- viability, T/C [14]: 85.4%
- viability, T/C [15]: 94.5%
- viability, T/C [16]: 74%
- viability, T/C [17]: 61.2%
- viability, T/C [18]: 57.3%
- viability, T/C [19]: 89.7%
- viability, T/C [20]: 88%
- viability, T/C [21]: 87%
- viability, T/C [22]: 72.7%
- viability, T/C [23]: 62.6%
- viability, T/C [24]: 51.8%
- viability, T/C [25]: 98.5%
- viability, T/C [26]: 88.2%
- viability, T/C [27]: 91.2%
- viability, T/C [28]: 77.7%
- viability, T/C [29]: 61.8%
- viability, T/C [30]: 49.4%
- viability, T/C [31]: 103%
- viability, T/C [32]: 88.1%
- viability, T/C [33]: 74.8%
- viability, T/C [34]: 63%
- viability, T/C [35]: 47.4%
- viability, T/C [36]: 38.5%
- viability, T/C [37]: 89.6%
- viability, T/C [38]: 81.7%
- viability, T/C [39]: 59.4%
- viability, T/C [40]: 43.5%
- viability, T/C [41]: 35.5%
- viability, T/C [42]: 30.2%

SMILES: CC1(C)CCC(Nc2ncc(C(F)(F)F)c(-c3c[nH]c4c(P(C)(C)=O)c(C#N)ccc34)n2)CN1 (stereo unspecified)
- viability, T/C (compound 0.0316 µM): 106% [middle of 4 runs]
- viability, T/C (compound 0.1 µM): 87.3% [middle of 4 runs]
- viability, T/C (compound 0.316 µM): 96.5% [middle of 4 runs]
- viability, T/C (compound 1 µM): 96.9% [middle of 4 runs]
- viability, T/C (compound 3.16 µM): 100% [middle of 4 runs]
- viability, T/C (compound 10 µM): 4.6% [middle of 4 runs]
- IC50 (curve of compound): 5.64 µM [middle of 4 runs]
